The values below come from PubChem BioAssay (NCI).

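Assay format: 96-well plates, 48-hour exposure. TGI: total growth inhibition.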 Where a SMILES comes first, the peptide text is derived from it. [ ]: non-standard residue; d: D form. The star is where a group is joined. ξ: configuration not given here. dThr(3ξ) = CC(O)[C@@H](N)C(=O)O; dNMeL = CN[C@H](CC(C)C)C(=O)O; OBn = c1ccc(CO*)cc1; ξLac = CC(O)C(=O)O

Among the test systems are A549 NSCLC; BT-549 breast; CAKI-1 renal; HT29 colon; IGROV1 ovarian; KM12 colon; MALME-3M melanoma; MDA-MB-435; MOLT-4 leukemia; NCI-H522 lung; OVCAR-3 ovarian; OVCAR-8 ovarian; SF-268 CNS; SK-MEL-28 melanoma; SK-OV-3 ovarian; SNB-19 CNS; TK-10 renal; U251 CNS; UO-31 renal.
What all share (experiment): NCI anticancer screen, dose series, 48 h

For the molecule `COc1cccc2c(NNc3ccccc3)c3ccc([N+](=O)[O-])cc3nc12`, the TGI was above 100 µM in the experiment with A549 NSCLC; 71.4 µM with BT-549 breast; above 100 µM in the experiment with CAKI-1 renal; above 100 µM with HT29 colon; above 100 µM with IGROV1 ovarian; 46.1 µM with KM12 colon. Besides, the TGI was above 100 µM with MALME-3M melanoma; above 100 µM with MDA-MB-435; 5.84 µM in the experiment with MOLT-4 leukemia; above 100 µM in the experiment on NCI-H522 lung; above 100 µM in the experiment on OVCAR-3 ovarian; above 100 µM in the experiment on OVCAR-8 ovarian. Further, the TGI with SF-268 CNS, in the experiment on SK-MEL-28 melanoma, with SK-OV-3 ovarian, with SNB-19 CNS, in the experiment on TK-10 renal and in the experiment with U251 CNS was above 100 µM in each case. Further, the TGI in the experiment with UO-31 renal came out at 61 µM.
`Cn1c(=O)[nH]c2[nH]c3ccccc3c2c1=O`: the TGI in the experiment with A549 NSCLC, with BT-549 breast, in the experiment with CAKI-1 renal, with HT29 colon, with IGROV1 ovarian and with KM12 colon was above 100 µM in each case. The TGI in the experiment on MALME-3M melanoma, with MDA-MB-435, in the experiment with MOLT-4 leukemia, with NCI-H522 lung, in the experiment with OVCAR-3 ovarian and with OVCAR-8 ovarian was above 100 µM in each case. Besides, the TGI in the experiment with SF-268 CNS, with SK-MEL-28 melanoma, in the experiment with SK-OV-3 ovarian, in the experiment on SNB-19 CNS, in the experiment with TK-10 renal and in the experiment on U251 CNS was above 100 µM each time. The molecule further returned a TGI with UO-31 renal above 100 µM.
Consider `Cc1ccc(S(=O)(=O)OC2=C/C(=N\c3onc(C)c3C)c3ccccc3C2=O)cc1`, for which the TGI in the experiment on A549 NSCLC was above 100 µM; in the experiment on BT-549 breast, 71.9 µM; in the experiment on CAKI-1 renal it was 37.8 µM; in the experiment with HT29 colon, above 100 µM; in the experiment on KM12 colon, 43 µM; with MALME-3M melanoma, 43.3 µM. Moreover, the TGI came out at 31.8 µM in the experiment on MDA-MB-435; 24.2 µM in the experiment on MOLT-4 leukemia; 21.1 µM in the experiment with NCI-H522 lung; 30.1 µM in the experiment with OVCAR-3 ovarian; 36.8 µM in the experiment on OVCAR-8 ovarian; 77.5 µM with SF-268 CNS. Moreover, the TGI with SK-MEL-28 melanoma is above 100 µM; in the experiment on SK-OV-3 ovarian it was above 100 µM; in the experiment with SNB-19 CNS it was 64.8 µM; in the experiment on TK-10 renal, 92.7 µM; with U251 CNS it was 21.1 µM; in the experiment with UO-31 renal, 30.7 µM.
For the molecule `COC(=O)[C@@H]1C[C@H]([Se]c2ccccc2)CN1S(=O)(=O)c1ccc(C)cc1`, the TGI in the experiment on A549 NSCLC, in the experiment on BT-549 breast, with CAKI-1 renal, in the experiment on HT29 colon, in the experiment with IGROV1 ovarian and with KM12 colon was above 100 µM each time. Further, the TGI in the experiment on MALME-3M melanoma, in the experiment with MDA-MB-435, in the experiment on MOLT-4 leukemia, with NCI-H522 lung, with OVCAR-3 ovarian and in the experiment on OVCAR-8 ovarian was above 100 µM each time. In addition, the TGI in the experiment with SF-268 CNS, with SK-MEL-28 melanoma, in the experiment on SK-OV-3 ovarian, with SNB-19 CNS, in the experiment on TK-10 renal and in the experiment with U251 CNS was above 100 µM each time. The TGI with UO-31 renal was above 100 µM.
As to `CC(=O)OC(C)[C@@H](NC(=O)[C@@H](CC(C)C)N(C)C(=O)[C@@H]1CCCN1C(=O)C(C)O)C(=O)OCc1ccccc1` (some centres not stated) (H-[ξLac]P[dNMeL][dThr(3ξ)](Ac)-OBn), the TGI in the experiment on A549 NSCLC, in the experiment with BT-549 breast, in the experiment with CAKI-1 renal, with HT29 colon, in the experiment with IGROV1 ovarian and with KM12 colon was above 100 µM throughout. Also, the TGI in the experiment with MALME-3M melanoma, in the experiment on MDA-MB-435, with MOLT-4 leukemia, with NCI-H522 lung, in the experiment on OVCAR-3 ovarian and in the experiment with OVCAR-8 ovarian was above 100 µM in each case. Also, the TGI in the experiment on SF-268 CNS, in the experiment on SK-MEL-28 melanoma, in the experiment on SK-OV-3 ovarian, in the experiment on SNB-19 CNS, with TK-10 renal and with U251 CNS was above 100 µM throughout. In the experiment on UO-31 renal, this molecule showed a TGI above 100 µM.
Turning to `COC1=NC(NC2OCC(O)C(O)C2O)=C(NC(C)=O)CN1C` (configuration not stated), the TGI in the experiment with A549 NSCLC, in the experiment with BT-549 breast, in the experiment on CAKI-1 renal, in the experiment on HT29 colon, in the experiment with KM12 colon and in the experiment with MALME-3M melanoma was above 100 µM throughout. Moreover, the TGI in the experiment on MDA-MB-435, in the experiment with MOLT-4 leukemia, in the experiment with NCI-H522 lung, in the experiment on OVCAR-3 ovarian, in the experiment with OVCAR-8 ovarian and in the experiment with SF-268 CNS was above 100 µM throughout. Besides, the TGI in the experiment on SK-MEL-28 melanoma, with SK-OV-3 ovarian, in the experiment with SNB-19 CNS, in the experiment with TK-10 renal and in the experiment with UO-31 renal was above 100 µM each time.
For the molecule `CCCCCCCCCCCCn1c(=O)cc(NCCCC)c2cc3c(NCCCC)cc(=O)n(CCCCCCCCCCCC)c3nc21`, the TGI in the experiment with A549 NSCLC, in the experiment on BT-549 breast, in the experiment on CAKI-1 renal, in the experiment with KM12 colon, in the experiment with MALME-3M melanoma and with MDA-MB-435 was above 100 µM each time. Further, the TGI in the experiment on MOLT-4 leukemia, in the experiment on NCI-H522 lung, in the experiment with OVCAR-3 ovarian, with SF-268 CNS, in the experiment on SK-MEL-28 melanoma and with SK-OV-3 ovarian was above 100 µM throughout. The TGI in the experiment with SNB-19 CNS, in the experiment on TK-10 renal, in the experiment with U251 CNS and with UO-31 renal was above 100 µM each time.
